Patent publication US7671054B1, “Reverse-turn mimetics and method relating thereto” (Choongwae Pharma Corporation, priority 2001, dated 2010)

How the values were obtained:
[1] = system: caspase 3; test: Caspase 3 activity in cultured tumor cells; type: cell-based
[2] = system: SW480 cells; test: Soft agar colony formation assay; type: cell-based
Experimental: The soft agar colony formation assay was conducted with SW480 cells by some modification of the procedure previously described (Moody et al., “A vasoactive intestinal peptide antagonist inhibits non-small cell lung cancer growth,” Proc. Natl. Acad. Sci. USA. 90:4345-49 (1993)).
Each well (35 mm) of a 6-well plate (Nalge Nunc International, Roskide, Denmark) was coated with 1 ml of 0.8% bottom agar in DMEM medium containing 10% fetal bovine serum. After it was solidified, 1 ml of DMEM medium containing 0.4% top agar, 10% fetal bovine serum, compound doubly concentrated, and 5,000 single viable cells was added to each well. The cultures were incubated at 37° C. in humidified 5% CO2 incubator. Colonies in soft agar were monitored daily and photographed after incubation for 8 days. Colonies>60 μm in diameter were counted.

[3] = target: β-catenin/p300 interaction (Homo sapiens, UniProt Q09472); conditions: Emami et al., Cancer Cell, in press; cited from earlier work
Chain of β-catenin/p300 interaction (Q09472 whole entry): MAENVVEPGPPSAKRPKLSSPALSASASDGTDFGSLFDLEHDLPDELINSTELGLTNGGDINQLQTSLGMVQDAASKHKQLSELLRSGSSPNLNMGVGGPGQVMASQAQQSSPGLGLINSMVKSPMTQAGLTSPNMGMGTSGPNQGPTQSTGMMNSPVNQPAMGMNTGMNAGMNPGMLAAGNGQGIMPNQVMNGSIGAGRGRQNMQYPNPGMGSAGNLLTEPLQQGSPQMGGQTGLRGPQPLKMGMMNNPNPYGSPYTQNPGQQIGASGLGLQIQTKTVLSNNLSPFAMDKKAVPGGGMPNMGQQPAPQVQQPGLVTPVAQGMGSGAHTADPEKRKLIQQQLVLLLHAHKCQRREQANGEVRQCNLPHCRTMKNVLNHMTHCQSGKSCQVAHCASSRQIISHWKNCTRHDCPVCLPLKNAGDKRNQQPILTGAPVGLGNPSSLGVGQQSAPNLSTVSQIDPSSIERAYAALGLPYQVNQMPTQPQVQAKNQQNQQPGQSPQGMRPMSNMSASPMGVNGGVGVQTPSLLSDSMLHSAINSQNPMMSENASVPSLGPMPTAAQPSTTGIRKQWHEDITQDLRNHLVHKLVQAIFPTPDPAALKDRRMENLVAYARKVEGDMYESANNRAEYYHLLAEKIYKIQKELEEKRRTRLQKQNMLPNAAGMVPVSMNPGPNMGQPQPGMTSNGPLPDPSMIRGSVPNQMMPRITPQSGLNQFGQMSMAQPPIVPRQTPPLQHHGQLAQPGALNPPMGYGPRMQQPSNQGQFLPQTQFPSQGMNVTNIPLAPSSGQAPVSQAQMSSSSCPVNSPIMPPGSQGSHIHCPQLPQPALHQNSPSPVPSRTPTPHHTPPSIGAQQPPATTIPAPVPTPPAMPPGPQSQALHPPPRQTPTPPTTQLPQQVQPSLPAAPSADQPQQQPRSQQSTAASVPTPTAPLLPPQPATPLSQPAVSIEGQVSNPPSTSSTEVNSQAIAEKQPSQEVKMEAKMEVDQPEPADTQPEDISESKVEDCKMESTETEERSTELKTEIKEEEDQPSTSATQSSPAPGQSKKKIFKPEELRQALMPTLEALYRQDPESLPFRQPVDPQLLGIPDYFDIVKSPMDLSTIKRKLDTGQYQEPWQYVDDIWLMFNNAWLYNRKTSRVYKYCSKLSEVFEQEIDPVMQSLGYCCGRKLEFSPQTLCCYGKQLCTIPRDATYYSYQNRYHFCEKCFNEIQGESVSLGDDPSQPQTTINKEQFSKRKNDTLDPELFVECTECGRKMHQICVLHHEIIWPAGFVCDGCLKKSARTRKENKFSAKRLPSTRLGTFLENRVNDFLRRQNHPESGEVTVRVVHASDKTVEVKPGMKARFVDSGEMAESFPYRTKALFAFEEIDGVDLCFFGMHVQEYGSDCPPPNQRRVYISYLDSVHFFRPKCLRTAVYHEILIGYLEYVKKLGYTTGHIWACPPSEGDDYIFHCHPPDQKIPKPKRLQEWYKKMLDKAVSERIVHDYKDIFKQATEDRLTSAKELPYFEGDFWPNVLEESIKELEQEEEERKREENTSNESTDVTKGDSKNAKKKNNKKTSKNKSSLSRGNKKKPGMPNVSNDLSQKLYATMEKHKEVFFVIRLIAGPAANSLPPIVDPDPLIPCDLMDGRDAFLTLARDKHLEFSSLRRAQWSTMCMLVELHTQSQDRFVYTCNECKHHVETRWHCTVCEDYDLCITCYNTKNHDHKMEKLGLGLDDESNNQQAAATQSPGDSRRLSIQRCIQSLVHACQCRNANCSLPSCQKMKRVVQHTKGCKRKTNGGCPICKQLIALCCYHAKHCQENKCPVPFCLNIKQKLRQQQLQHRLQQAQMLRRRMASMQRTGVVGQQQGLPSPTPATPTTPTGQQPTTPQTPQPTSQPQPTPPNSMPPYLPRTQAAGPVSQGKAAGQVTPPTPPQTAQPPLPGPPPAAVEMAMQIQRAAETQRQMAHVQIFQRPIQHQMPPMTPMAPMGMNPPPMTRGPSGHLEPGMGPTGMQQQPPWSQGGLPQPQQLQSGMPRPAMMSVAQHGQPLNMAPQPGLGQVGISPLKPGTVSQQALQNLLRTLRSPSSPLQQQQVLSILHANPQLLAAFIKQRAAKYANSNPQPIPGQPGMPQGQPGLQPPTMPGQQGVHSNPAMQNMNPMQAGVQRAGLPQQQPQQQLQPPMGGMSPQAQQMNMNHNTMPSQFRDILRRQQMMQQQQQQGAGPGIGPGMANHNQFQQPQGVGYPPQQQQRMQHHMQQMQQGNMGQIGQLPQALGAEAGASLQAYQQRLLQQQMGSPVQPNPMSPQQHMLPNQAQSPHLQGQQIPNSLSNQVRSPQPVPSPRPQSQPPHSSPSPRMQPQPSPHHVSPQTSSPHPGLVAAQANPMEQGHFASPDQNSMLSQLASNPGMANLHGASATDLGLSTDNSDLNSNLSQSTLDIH

SMILES: O=C1[C@H](Cc2ccc(O)cc2)N2C(=O)CCN(C(=O)NCc3ccccc3)[C@H]2CN1Cc1cccc2ccccc12 [Compound D]
- caspase 3 activity, co-treatment ([1]; co-treatment of stausporine (0.5 μM) and Compound D): synergic stimuation of the caspase 3 activity
- caspase 3 activity ([1]; cultured tumor cells, 2.5 μM or 5.0 μM): activates the caspase 3 activity
- number of colonies formed in soft agar ([2]; 0.25-5 μM): reduces colony growth in soft agar in a dose dependent manner
- IC50 ([2]; Homo sapiens, 192 h, 8 days, colonies >60 μm): 870 ± 110 nM
- β-catenin/p300 interaction [3]: not the β-catenin/p300 interaction
